According to patent publication US10517889B2, “Modulators of SMAD7 expression” (Ionis Pharmaceuticals, Inc., priority 2017, dated 2019):
Strand notation (5' to 3'): a small letter for the sugar, then the base; units joined by * are phosphorothioate-linked, units joined directly phosphodiester-linked; [ ] holds rarer units or linkages, { } end groups; capitals alone tell only the bases. k = constrained ethyl (cEt); [5mC] = 5-methylcytosine; d = 2'-deoxy (DNA)

system: human SMAD7 mRNA; assay: Antisense inhibition of human SMAD7 mRNA expression in Hep3B cells by 3-10-3 cEt gapmers, 10,000 nM, electroporation (Example 2); assay type: cell-based; conditions: Hep3B cells, 10,000 nM antisense oligonucleotide, electroporation, approximately 24 hours, RT-PCR primer probe set RTS5062, relative to untreated control cells
Summary of the method: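 Hep3B cells (20,000 per well) were electroporated with 10,000 nM 16-mer 3-10-3 cEt gapmer (phosphorothioate, 5-methylcytosine). After about 24 h, SMAD7 mRNA was quantified by qRT-PCR with primer probe set RTS5062, normalised to RIBOGREEN total RNA, and expressed as percent inhibition versus untreated cells.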

Substance	% Inhibition [%]
799859 (kT*kG*kT*dA*dA*dT*dT*dT*dA*dG*d[5mC]*dA*dA*kT*kT*k[5mC]; antisense) [compound 799859]	32
799993 (kA*kT*kA*dA*dT*dG*dA*dA*dG*dT*dG*dA*dT*kA*kT*kT; antisense) [compound 799993]	0
799938 (antisense k[5mC]*kT*k[5mC]*dT*dA*dA*dA*d[5mC]*d[5mC]*dA*dA*d[5mC]*dT*kT*kT*kT) [compound 799938]	17
798907 (kG*k[5mC]*kG*dG*d[5mC]*dT*dA*d[5mC]*d[5mC]*dG*dG*d[5mC]*dT*kG*kT*kT; antisense) [compound 798907]	0
790507 (kA*kA*kG*dA*dA*dG*dT*dT*dG*dG*dG*dA*dA*kT*k[5mC]*kT; antisense) [compound 790507]	0
799911 (antisense kA*kG*k[5mC]*d[5mC]*dA*dA*d[5mC]*dT*d[5mC]*d[5mC]*dA*dT*dT*k[5mC]*kA*kT) [compound 799911]	0
799974 (kG*kA*k[5mC]*dT*d[5mC]*d[5mC]*dA*dG*dT*dG*d[5mC]*d[5mC]*dA*kA*kT*k[5mC]; antisense) [compound 799974]	23

same assay, conditions: Hep3B cells, electroporation with 10,000 nM antisense oligonucleotide, approximately 24 hours, RTS5062, percent inhibition of SMAD7 mRNA relative to untreated control cells

Substance	% Inhibition [%]
799790 (kG*kA*kG*dA*d[5mC]*d[5mC]*dT*dA*d[5mC]*d[5mC]*dT*d[5mC]*dT*kG*kT*kT; antisense) [compound 799790]	33
799710 (antisense kG*kT*k[5mC]*dA*dA*dA*d[5mC]*dT*dT*dG*dT*dG*dG*kT*kA*kA) [compound 799710]	48
799642 (kG*k[5mC]*kA*dA*dA*dT*d[5mC]*d[5mC]*dT*dT*dT*d[5mC]*d[5mC]*kA*kT*k[5mC]; antisense) [compound 799642]	53
799662 (antisense k[5mC]*kG*kT*dG*dA*dG*d[5mC]*dA*d[5mC]*dT*dT*d[5mC]*dT*kG*kT*k[5mC]) [compound 799662]	55
799309 (antisense kG*k[5mC]*kA*d[5mC]*dG*d[5mC]*dT*d[5mC]*dT*dA*dA*dA*d[5mC]*kA*kG*k[5mC]) [compound 799309]	42

same assay, conditions: Hep3B cells, electroporation with 10,000 nM antisense oligonucleotide, approximately 24 hours, SMAD7 mRNA by RT-PCR (RTS5062), relative to untreated control cells

Substance	% Inhibition [%]
790492 (kT*k[5mC]*k[5mC]*d[5mC]*dG*dT*dA*dA*dG*dA*dT*dT*d[5mC]*kA*k[5mC]*kA; antisense) [compound 790492]	38
799889 (antisense kA*kA*kA*dA*dG*dG*dA*d[5mC]*dA*dA*dA*dA*d[5mC]*k[5mC]*k[5mC]*k[5mC]) [compound 799889]	45
798753 (kT*kG*k[5mC]*dA*dG*dT*d[5mC]*d[5mC]*dA*dG*dG*d[5mC]*dG*kG*k[5mC]*k[5mC]; antisense) [compound 798753]	0
798829 (kG*kA*kT*dA*dT*d[5mC]*d[5mC]*dA*dG*dA*dG*dA*dG*kG*kG*k[5mC]; antisense) [compound 798829]	0
772536 (antisense kG*kA*k[5mC]*d[5mC]*dT*d[5mC]*d[5mC]*dG*d[5mC]*dA*d[5mC]*dA*d[5mC]*k[5mC]*kA*kT) [compound 772536]	22
799389 (antisense kA*kA*kA*dA*d[5mC]*dG*d[5mC]*dA*dG*dG*dA*dG*dG*k[5mC]*kG*kG) [compound 799389]	27
799259 (antisense kT*kG*k[5mC]*d[5mC]*d[5mC]*d[5mC]*dA*dA*dA*dA*d[5mC]*dT*d[5mC]*k[5mC]*kA*kA) [compound 799259]	45
798922 (kA*kA*kG*dT*dG*dT*dG*dG*d[5mC]*d[5mC]*dT*dG*d[5mC]*kT*k[5mC]*kA; antisense) [compound 798922]	59
830096 (kA*kA*k[5mC]*dA*dA*d[5mC]*dA*dT*d[5mC]*d[5mC]*dT*dG*dA*kG*k[5mC]*kG; antisense) [compound 830096]	44
830047 (kT*kT*k[5mC]*d[5mC]*dG*dA*dT*dT*dG*dG*d[5mC]*dA*dG*kG*kT*kT; antisense) [compound 830047]	42

same assay, conditions: Hep3B cells, electroporation with 10,000 nM antisense oligonucleotide, approximately 24 hours, primer probe set RTS5062, relative to untreated control cells

Substance	% Inhibition [%]	% inhibition of SMAD7 mRNA expression [%]
799116 (antisense kT*kA*kA*d[5mC]*dA*d[5mC]*dA*d[5mC]*dA*dG*dG*dA*dT*kG*kG*kG) [compound 799116]	34	
798791 (k[5mC]*kA*kT*d[5mC]*dG*dG*dG*dT*dA*dT*d[5mC]*dT*dG*kG*kA*kG; antisense) [compound 798791]		25
798950 (antisense k[5mC]*kA*kA*dA*dG*dA*dG*d[5mC]*dG*dA*dA*dA*d[5mC]*kA*kA*kA) [compound 798950]		0
799104 (antisense kA*kG*kT*d[5mC]*d[5mC]*dG*dG*dG*dA*dA*dA*dA*dA*k[5mC]*k[5mC]*kT) [compound 799104]		40
799156 (antisense kG*kA*kA*dA*dG*dA*dA*dG*dA*dG*dT*dT*dA*kG*kG*kT) [compound 799156]	37	
798998 (antisense k[5mC]*kG*k[5mC]*dA*d[5mC]*dA*d[5mC]*dT*d[5mC]*dA*d[5mC]*dA*d[5mC]*kT*k[5mC]*kA) [compound 798998]	13	
799191 (antisense kA*kT*kG*dA*dG*dA*dA*dT*dG*d[5mC]*dT*dT*d[5mC]*kT*k[5mC]*kT) [compound 799191]	26	
798773 (kT*kG*kA*d[5mC]*dT*dT*d[5mC]*d[5mC]*dG*dA*dG*dG*dA*kA*kT*kG; antisense) [compound 798773]		40
799064 (antisense kT*kA*kA*dT*dT*dG*dG*dT*dT*d[5mC]*dT*dG*dG*kT*kT*k[5mC]) [compound 799064]		47
799117 (antisense kG*k[5mC]*kT*dT*dA*dA*d[5mC]*dA*d[5mC]*dA*d[5mC]*dA*dG*kG*kA*kT) [compound 799117]	46	
799075 (antisense kA*kG*kA*dT*dG*dG*d[5mC]*d[5mC]*dA*dA*dA*dA*dA*kA*kG*kA) [compound 799075]	0	
799045 (kG*kG*kA*d[5mC]*dA*dG*dA*dG*d[5mC]*d[5mC]*dG*dT*dG*k[5mC]*kT*k[5mC]; antisense) [compound 799045]		37

same assay, conditions: Hep3B cells, electroporation, 10,000 nM antisense oligonucleotide, approximately 24 hours, RTS5062, relative to untreated control cells

Substance	% inhibition of SMAD7 mRNA expression [%]
799574 (k[5mC]*kA*kT*dT*d[5mC]*dA*dG*dG*dG*dT*dT*dT*dA*kA*kA*kA; antisense) [compound 799574]	7
798806 (kT*kG*kA*dA*dA*dG*d[5mC]*d[5mC]*d[5mC]*d[5mC]*d[5mC]*d[5mC]*dA*kG*kG*kG; antisense) [compound 798806]	50
799502 (antisense k[5mC]*kA*kA*dA*dT*dA*dG*dG*dA*dA*dA*dG*d[5mC]*k[5mC]*kA*kA) [compound 799502]	31
799503 (antisense kG*kG*k[5mC]*d[5mC]*dA*d[5mC]*d[5mC]*dA*dG*dG*dA*d[5mC]*dA*kA*kT*kG) [compound 799503]	0
799714 (antisense k[5mC]*kA*k[5mC]*d[5mC]*dA*dA*dA*dA*d[5mC]*dA*dA*dG*dT*kG*kT*k[5mC]) [compound 799714]	33
799677 (antisense kG*k[5mC]*kT*d[5mC]*dA*dT*dG*dA*dG*d[5mC]*dA*dT*dT*kT*kG*kG) [compound 799677]	68
799599 (k[5mC]*k[5mC]*kA*dA*d[5mC]*dT*d[5mC]*dT*dG*dA*dA*d[5mC]*dG*kG*kA*kA; antisense) [compound 799599]	12
799695 (antisense k[5mC]*k[5mC]*kA*dG*dG*dA*dA*d[5mC]*d[5mC]*dA*dG*d[5mC]*dA*k[5mC]*kT*kT) [compound 799695]	6

same assay, conditions: SMAD7 mRNA, Hep3B cells, 10,000 nM antisense oligonucleotide, electroporation, approximately 24 hours, primer probe set RTS5062, relative to untreated control cells

Substance	% Inhibition [%]
829722 (antisense kA*kT*kG*d[5mC]*dG*d[5mC]*d[5mC]*dA*dG*dT*d[5mC]*dT*d[5mC]*k[5mC]*k[5mC]*kG) [compound 829722]	38
829718 (antisense k[5mC]*k[5mC]*kA*dG*dT*d[5mC]*dT*d[5mC]*d[5mC]*d[5mC]*dG*dG*dA*kG*kG*k[5mC]) [compound 829718]	15
829761 (antisense kT*k[5mC]*kA*dG*dA*dT*d[5mC]*d[5mC]*dG*d[5mC]*d[5mC]*dT*d[5mC]*kG*kG*k[5mC]) [compound 829761]	21

same assay, conditions: SMAD7 mRNA, Hep3B cells, electroporation with 10,000 nM antisense oligonucleotide, approximately 24 hours, primer probe set RTS5062, relative to untreated control cells

Substance	% Inhibition [%]
829850 (antisense kT*kT*kG*dT*dT*dG*dT*d[5mC]*d[5mC]*dG*dA*dA*dT*kT*kG*kA) [compound 829850]	36
829929 (kA*k[5mC]*k[5mC]*dA*dA*dT*d[5mC]*dT*dT*dG*dT*dG*dT*kT*kT*kA; antisense) [compound 829929]	19
829976 (kA*k[5mC]*kA*dA*dA*dA*dG*dA*dG*dG*d[5mC]*d[5mC]*dG*k[5mC]*k[5mC]*kT; antisense) [compound 829976]	10
829909 (antisense k[5mC]*kG*kG*d[5mC]*dT*dA*d[5mC]*d[5mC]*dG*dG*d[5mC]*dT*dG*kT*kT*kG) [compound 829909]	34
829923 (kA*kG*kT*dA*dT*d[5mC]*dA*dT*dA*d[5mC]*dG*dA*dG*kT*kG*kT; antisense) [compound 829923]	54
